# Target: T1, 6xHis-CaTps1 (Candida albicans, UniProt Q92410)
# T1 construct: Briefly, the full-length; thrombin cleavage site (pET-28a linker) (N); made in house; host or cells: E. coli BL21(DE3)pLysS
# T1 sequence (Q92410 1-478): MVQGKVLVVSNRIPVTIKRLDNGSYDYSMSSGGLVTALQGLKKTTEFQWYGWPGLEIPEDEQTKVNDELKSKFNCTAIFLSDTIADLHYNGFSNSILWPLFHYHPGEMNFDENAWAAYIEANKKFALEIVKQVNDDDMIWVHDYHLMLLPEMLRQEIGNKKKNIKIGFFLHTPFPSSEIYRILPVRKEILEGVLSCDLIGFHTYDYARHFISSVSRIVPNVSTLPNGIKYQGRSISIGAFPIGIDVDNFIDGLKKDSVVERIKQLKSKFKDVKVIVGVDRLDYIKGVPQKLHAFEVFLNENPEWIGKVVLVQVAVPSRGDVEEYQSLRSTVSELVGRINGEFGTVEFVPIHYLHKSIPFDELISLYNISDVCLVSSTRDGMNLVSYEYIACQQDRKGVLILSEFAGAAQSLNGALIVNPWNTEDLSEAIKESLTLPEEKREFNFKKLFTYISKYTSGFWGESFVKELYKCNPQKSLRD
# Experiment: Spectrophotometric-coupled Tps1 enzyme activity assay
# Assay type: biochemical, C. albicans
# Conditions: 1 mM 4456dh, 4°C for 16 hours
# Method: Fig 2 4456dh binds Tps1 and inhibits Tps1 activity. (A) Structure of 4456dh. (B and C) Glo-melt thermal shift assays reveal 4456dh destabilizes 6xHis-CaTps1 (B) and 6xHis-CnTps1 (C). The first derivative of the raw data was used to determine the melting temperature of 1 µM 6xHis-CaTps1 (B) and 1 µM 6xHis-CnTps1 (C) treated without (black) or with 2 mM 4456dh (red). […] The resulting dose-response curves were fitted to a one-site binding model to extract Kd values; the SD was calculated using the Kd values from each independent experiment (n = 3). (F) Tps1 enzyme activity assay with 5 µM 6xHis-CaTps1 (F) and 6xHis-CnTps1 (G) ±1 mM 4456dh. Error bars represent SE. […]
# The ability of 4456dh to inhibit the activity of CaTps1 was tested using a spectrophotometric-coupled Tps1 enzyme assay, in which recombinant 6xHis-CaTps1 was incubated with 1 mM 4456dh at 4°C for 16 hours. […] Similarly, the effect of 1 mM 4456dh on 6xHis-CnTps1 activity was determined. […]
# 82 determined by SDS-PAGE analysis, were pooled and concentrated to 1 mg/mL for downstream […]
# 93 The data were acquired with MO.Control 1.5.3 (NanoTemper Technologies GmbH). Recorded
# 94 data were analyzed with MO.Affinity Analysis 2.2.7 (NanoTemper Technologies GmbH). […]
# 100 2X Glo-melt dye. Thermal denaturation was measured using an RT-PCR thermocycler (BioRad) […]
# 102 determined by identifying the inflection point of the derivative data. […]
compound,measurement,value
Cn1cc(-c2csc(NC(=O)Cc3ccccn3)n2)cn1 [Compound 4456dh],reduction of 6xHis-CaTps1 activity,approximately 30%

# Reference: publication PMC12505902, “Inhibitors of trehalose-6-phosphate synthase activity in fungal pathogens compromise thermal tolerance pathways” (mBio, 2025)
